Experimental data from ChEMBL document CHEMBL5512656, “Tetrazole derivatives in the management of neurological disorders: Recent advances on synthesis and pharmacological aspects” (Eur J Med Chem, 2024).

Legend:
[1] = target: T1, Acetylcholinesterase (Electrophorus electricus, UniProt O42275); assay: Inhibition of electric eel AChE using acetylthiocholine iodide as substrate incubated for 30 mins by Ellman's method
[2] = tested on: Mus musculus; assay: Antidepressant activity in Kunming mouse assessed as reduction in duration of immobility time at 50 mg/kg, ip by forced swim test; format: functional
[3] = Neurotoxicity in ip dosed mouse by rotarod test; format: toxicity, organism-based; conditions: in vivo
[4] = tested on: Mus musculus; assay: Anticonvulsant activity in ip dosed MES induced mouse seizure model measured after 0.5 and 4 hrs; format: functional
[5] = tested on: Mus musculus; assay: Anticonvulsant activity in ip dosed scPTZ induced Kunming mouse seizure model measured for 30 mins; format: functional; conditions: 0.5 h
[6] = tested on: Mus musculus; assay: Antidepressant activity in Kunming mouse assessed as reduction in duration of immobility time at 40 mg/kg, ip by forced swim test; format: functional
[7] = tested on: Mus musculus; assay: Anticonvulsant activity in ip dosed scPTZ induced Kunming mouse seizure model measured after 30 mins; format: functional; conditions: 0.5 h
[8] = tested on: Rattus norvegicus; assay: Anticonvulsant activity in po dosed MES induced Albino rat seizure model measured after 4 hrs; format: functional
[9] = tested on: Rattus norvegicus; assay: Anticonvulsant activity in po dosed scPTZ induced Albino rat seizure model measured after 4 hrs; format: functional
[10] = Cytotoxicity against mouse NIH/3T3 cells incubated for 24 hrs by MTT assay
[11] = target: T1, Acetylcholinesterase; assay: Inhibition of electric eel AChE using acetylthiocholine iodide as substrate preincubated for 15 mins followed by substrate addition and measured after 30 mins by Ellman's method
[12] = target: T1, Acetylcholinesterase; assay: Inhibition of electric eel AChE using acetylthiocholine iodide as substrate preincubated for 10 mins followed by substrate addition and measured after 15 mins by Ellman's method
[13] = target: Cholinesterase (Equus caballus, UniProt P81908); assay: Inhibition of equine serum BChE using butyrylthiocholine chloride as substrate preincubated for 10 mins followed by substrate addition and measured after 15 mins by Ellman's method
Sequence of Cholinesterase (P81908 whole entry): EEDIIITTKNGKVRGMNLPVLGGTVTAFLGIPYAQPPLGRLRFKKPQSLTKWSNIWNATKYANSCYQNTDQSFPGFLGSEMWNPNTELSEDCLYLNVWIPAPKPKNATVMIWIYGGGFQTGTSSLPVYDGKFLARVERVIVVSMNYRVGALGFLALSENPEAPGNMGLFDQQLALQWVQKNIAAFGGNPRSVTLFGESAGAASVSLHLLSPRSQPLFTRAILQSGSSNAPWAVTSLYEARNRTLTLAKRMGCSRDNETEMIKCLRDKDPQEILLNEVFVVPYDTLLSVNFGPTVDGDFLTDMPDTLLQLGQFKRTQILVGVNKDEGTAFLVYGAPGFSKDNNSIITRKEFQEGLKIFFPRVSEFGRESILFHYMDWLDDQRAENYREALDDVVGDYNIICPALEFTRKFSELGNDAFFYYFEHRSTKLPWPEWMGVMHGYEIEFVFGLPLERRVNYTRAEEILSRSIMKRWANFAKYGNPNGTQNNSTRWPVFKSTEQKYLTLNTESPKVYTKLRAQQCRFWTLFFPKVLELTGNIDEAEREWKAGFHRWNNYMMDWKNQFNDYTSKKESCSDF

[14] = Protection index, ratio of TD50 for neurotoxicity in ip dosed Kunming mouse to ED50 for anticonvulsant activity in ip dosed Kunming mouse; format: toxicity, organism-based; conditions: in vivo, read-out: PI
[15] = tested on: Mus musculus; assay: Anticonvulsant activity in ip dosed MES induced Kunming mouse seizure model; format: functional
[16] = tested on: Mus musculus; assay: Anticonvulsant activity in po dosed MES induced Kunming mouse seizure model; format: functional
[17] = Neurotoxicity in ip dosed Kunming mouse after 15 mins by rotarod test; format: toxicity, organism-based; conditions: in vivo
[18] = tested on: Mus musculus; assay: Antidepressant activity in Kunming mouse assessed as reduction in duration of immobility time at 30 mg/kg, ip by forced swim test; format: functional
[19] = target: Acetylcholinesterase (Electrophorus electricus) (UniProt O42275); assay: Inhibition of electric eel AChE using acetylthiocholine iodide as substrate preincubated for 15 mins followed by substrate addition and measured after 30 mins by Ellman's method relative to control; conditions: time 45.0 min
Sequence of Acetylcholinesterase (Electrophorus electricus) (O42275 24-633 limits assumed): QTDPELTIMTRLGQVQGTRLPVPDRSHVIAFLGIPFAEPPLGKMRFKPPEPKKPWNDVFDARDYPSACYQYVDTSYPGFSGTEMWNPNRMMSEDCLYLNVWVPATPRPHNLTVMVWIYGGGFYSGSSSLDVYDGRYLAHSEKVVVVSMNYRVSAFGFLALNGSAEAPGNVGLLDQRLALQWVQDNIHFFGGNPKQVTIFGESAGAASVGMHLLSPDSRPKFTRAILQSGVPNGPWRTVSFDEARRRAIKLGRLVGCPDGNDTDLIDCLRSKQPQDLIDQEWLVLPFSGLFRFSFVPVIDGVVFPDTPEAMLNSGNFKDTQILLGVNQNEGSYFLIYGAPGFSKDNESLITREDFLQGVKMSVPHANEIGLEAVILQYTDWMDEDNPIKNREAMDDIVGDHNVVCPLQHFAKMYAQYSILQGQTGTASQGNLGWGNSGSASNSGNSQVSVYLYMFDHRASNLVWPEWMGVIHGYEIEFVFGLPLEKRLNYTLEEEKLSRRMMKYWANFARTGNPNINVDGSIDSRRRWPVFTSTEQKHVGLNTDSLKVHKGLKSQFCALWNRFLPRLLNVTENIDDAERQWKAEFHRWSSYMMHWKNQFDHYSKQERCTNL

[20] = target: Cholinesterase (Equus caballus) (UniProt P81908); assay: Inhibition of equine serum BChE using butyrylthiocholine iodide as substrate preincubated for 15 mins followed by substrate addition and measured after 30 mins by Ellman's method relative to control; conditions: time 45.0 min
Sequence of Cholinesterase (Equus caballus) (P81908 whole entry): as the sequence (P81908 whole entry) above

[21] = Inhibition of DA uptake in HEK293 cells transfected with human DAT by liquid scintillation counting analysis; format: functional, cell-based
[22] = Inhibition of 5-HT uptake in HEK293 cells transfected with human SERT by liquid scintillation counting analysis; format: functional, cell-based
[23] = Inhibition of NE uptake in HEK293 cells transfected with human NET by liquid scintillation counting analysis; format: functional, cell-based
[24] = Inhibition of 5-HT uptake in HEK293 cells transfected with human SERT at 1 uM by liquid scintillation counting analysis; format: functional
[25] = Inhibition of DA uptake in HEK293 cells transfected with human DAT at 1 uM by liquid scintillation counting analysis; format: functional
[26] = Inhibition of NE uptake in HEK293 cells transfected with human NET at 1 uM by liquid scintillation counting analysis; format: functional
[27] = tested on: Mus musculus; assay: Anticonvulsant activity in ip dosed scPTZ induced Kunming mouse seizure model; format: functional
[28] = tested on: Mus musculus; assay: Anticonvulsant activity in ip dosed MES induced Kunming mouse seizure model measured after 0.5, 1, 2, and 4 hrs intervals; format: functional
[29] = Neurotoxicity in ip dosed Kunming mouse by rotarod test; format: toxicity, organism-based; conditions: in vivo

T1 sequence (O42275 whole entry): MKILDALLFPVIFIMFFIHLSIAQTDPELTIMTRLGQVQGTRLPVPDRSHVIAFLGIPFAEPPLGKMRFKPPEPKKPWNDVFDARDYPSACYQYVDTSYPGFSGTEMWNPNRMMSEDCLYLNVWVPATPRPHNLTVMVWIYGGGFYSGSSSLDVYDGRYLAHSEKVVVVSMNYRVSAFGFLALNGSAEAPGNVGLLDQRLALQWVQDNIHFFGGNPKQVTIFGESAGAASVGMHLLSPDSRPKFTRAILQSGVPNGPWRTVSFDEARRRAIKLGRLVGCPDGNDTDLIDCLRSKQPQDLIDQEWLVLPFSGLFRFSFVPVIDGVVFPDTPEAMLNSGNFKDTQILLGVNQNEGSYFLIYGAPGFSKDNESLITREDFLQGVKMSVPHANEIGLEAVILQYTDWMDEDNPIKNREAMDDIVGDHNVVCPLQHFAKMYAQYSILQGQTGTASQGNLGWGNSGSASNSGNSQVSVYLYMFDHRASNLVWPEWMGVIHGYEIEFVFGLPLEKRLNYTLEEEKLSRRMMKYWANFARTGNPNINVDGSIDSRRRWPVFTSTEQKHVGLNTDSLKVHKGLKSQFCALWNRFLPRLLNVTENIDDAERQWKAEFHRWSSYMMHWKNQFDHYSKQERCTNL

SMILES: Cc1ccccc1-n1nnnc1S[C@H]1Cc2ccccc2C1=O
- IC50 [1]: 7.56 µM

SMILES: Cc1ccc(-n2c(=O)c3ccccc3n3nnnc23)cc1
- Time [2]: 11.83 s

SMILES: Cc1ccccc1-c1nnnn1Cc1cccc(F)c1
- TD50 [3]: 450 mg/kg
- ED50 [4]: 39.9 mg/kg

SMILES: FC(F)(F)c1ccccc1C1Cc2nnnn2-c2ccsc21 (configuration not stated)
- ED50 [5]: 26.2 mg/kg
- ED50 [4]: 19 mg/kg
- Time [6]: 68.43 s

SMILES: Clc1ccccc1-c1nnn[nH]1
- ED50 [7]: 83.3 mg/kg

SMILES: CCC1(C)CC(=O)NC1=O (configuration not stated) [ETHOSUXIMIDE]
- ED50 [5]: 106 mg/kg
- ED50 [8]: > 500 mg/kg
- ED50 [9]: 167 mg/kg

SMILES: O=C(CCCSc1nnnn1-c1ccccc1)N/N=C/c1cccc(O)c1
- IC50 at 24 h ([10]; NIH/3T3 cells): 105 µM
- IC50 [11]: 76.5 µM

SMILES: O=C1NC(=O)C(c2ccccc2)(c2ccccc2)N1 [PHENYTOIN]
- ED50 [8]: 28.1 mg/kg
- ED50 [9]: > 500 mg/kg

SMILES: CN(C)C(=O)Oc1cccc([N+](C)(C)C)c1 [NEOSTIGMINE]
- IC50 [12]: 0.019 µM
- IC50 [13]: 8.41 µM

SMILES: Clc1ccc(Oc2nn3nnnc3c3ccccc23)cc1
- selectivity ratio [14]: 67.1
- ED50 [15]: 6.8 mg/kg
- ED50 [16]: 24 mg/kg
- TD50 at 0.25 h [17]: 456 mg/kg

SMILES: CNCCC(Oc1ccc(C(F)(F)F)cc1)c1ccccc1 (configuration not stated) [FLUOXETINE]
- Time [2]: 17.83 s
- Time [6]: 54.21 s
- Time [18]: 61.3 s

SMILES: Cc1ccccc1Cn1nnnc1-c1ccccc1C
- TD50 [3]: 500 mg/kg
- ED50 [4]: 12.7 mg/kg

SMILES: O=C(CCCSc1nnnn1-c1ccccc1)N/N=C/c1cccc([N+](=O)[O-])c1
- IC50 [11]: 42.5 µM

SMILES: O=C1c2ccccc2C[C@@H]1Sc1nnnn1-c1cccc([N+](=O)[O-])c1
- IC50 [1]: 2.86 µM

SMILES: O=[N+]([O-])c1cccc(/C=N/NCCCCc2nnnn2-c2ccccc2)c1
- IC50 at 24 h ([10]; NIH/3T3 cells): 51.7 µg/mL
- inhibition [19]: 98.5%

SMILES: O=C1c2ccccc2C[C@@H]1Sc1nnnn1-c1ccccc1F
- IC50 [1]: 4.04 µM

SMILES: COc1ccc(C2Cc3nnnn3-c3ccsc32)cc1 (configuration not stated)
- ED50 [5]: 65.5 mg/kg
- ED50 [4]: 44 mg/kg

SMILES: COc1ccc(Oc2nc3nnnn3c3ccccc23)cc1
- Time [18]: 85.2 s

SMILES: O=c1c2ccccc2n2nnnc2n1-c1ccccc1F
- Time [2]: 14.67 s

SMILES: Oc1cccc(/C=N/NCCCCc2nnnn2-c2ccccc2)c1
- inhibition [20]: 51.3%

SMILES: NC(=O)N1c2ccccc2C=Cc2ccccc21 [CARBAMAZEPINE]
- ED50 [4]: 11.8 mg/kg
- ED50 [16]: 27.3 mg/kg

SMILES: Cc1cccc(-n2c(=O)c3ccccc3n3nnnc23)c1
- Time [2]: 16.5 s

SMILES: COc1cc2c(cc1OC)C(=O)C(CC1CCN(Cc3ccccc3)CC1)C2 (configuration not stated) [DONEPEZIL]
- IC50 at 24 h ([10]; nih3t3): 1.26 µM

SMILES: O=C1c2ccccc2C[C@@H]1Sc1nnnn1-c1ccc(F)cc1
- IC50 [1]: 3.04 µM

SMILES: Clc1ccc(C2Cc3nnnn3-c3ccsc32)cc1 (configuration not stated)
- ED50 [5]: 20.5 mg/kg
- ED50 [4]: 9.5 mg/kg

SMILES: Fc1ccc(C(c2ccc(F)cc2)c2nnnn2CCCCN2CCC(Cc3ccccc3)CC2)cc1
- IC50 [21]: 0.058 µM
- IC50 [22]: 0.453 µM
- IC50 [23]: 0.298 µM
- inhibition at 1 µM [24]: 77.6%
- inhibition at 1 µM [25]: 92.3%
- inhibition at 1 µM [26]: 81%

SMILES: NC(=O)O[C@@H](Cn1ncnn1)c1ccccc1Cl [CENOBAMATE]
- ED50 [27]: 28.5 mg/kg
- ED50 [15]: 9.8 mg/kg

SMILES: CC1(c2ccc(F)cc2)CC(c2ccc(F)cc2)=C(C#N)/C(=C(/C#N)c2nnn[nH]2)N1 (configuration not stated)
- IC50 [12]: 2.01 µM
- IC50 [13]: 38.8 µM

SMILES: CCCCCOc1nc2nnnn2c2ccccc12
- Time [18]: 112.3 s

SMILES: Clc1ccc(C(c2ccccc2)c2nnnn2CCCCN2CCC(Cc3ccccc3)CC2)cc1 (configuration not stated)
- IC50 [21]: 0.55 µM
- IC50 [22]: 0.09 µM
- IC50 [23]: 0.78 µM
- inhibition at 1 µM [24]: 88.9%
- inhibition at 1 µM [25]: 67.8%
- inhibition at 1 µM [26]: 58.9%

SMILES: FC(F)(F)c1ccc(C2Cc3nnnn3-c3ccsc32)cc1 (configuration not stated)
- ED50 [5]: 64.7 mg/kg
- ED50 [4]: 23.4 mg/kg
- Time [6]: 51.43 s

SMILES: O=C1c2ccccc2C[C@@H]1Sc1nnnn1-c1cccc(F)c1
- IC50 [1]: 2.63 µM

SMILES: COc1ccccc1C1=C(C#N)/C(=C(/C#N)c2nnn[nH]2)NC(C)(c2ccccc2OC)C1 (configuration not stated)
- IC50 [12]: 19.3 µM
- IC50 [13]: 0.29 µM

SMILES: O=C1c2ccccc2C[C@@H]1Sc1nnnn1-c1ccc([N+](=O)[O-])cc1
- IC50 [1]: 6.67 µM

SMILES: Cc1ccccc1-c1nn[nH]n1
- selectivity ratio [14]: 19.7
- ED50 [28]: 9.6 mg/kg
- TD50 [29]: 190 mg/kg

SMILES: CCCCCCOc1nc2nnnn2c2ccccc12
- Time [18]: 62.2 s

SMILES: FC(F)(F)c1cccc(C2Cc3nnnn3-c3ccsc32)c1 (configuration not stated)
- Time [6]: 73.63 s

SMILES: Cc1ccccc1-n1c(C)nc2c(OCc3nnn(C(=O)c4ccc(N)cc4)n3)cccc2c1=O
- ED50 [8]: 10.9 mg/kg
- ED50 [9]: 48.4 mg/kg

SMILES: O=C(CCCSc1nnnn1-c1ccccc1)N/N=C/c1ccccc1[N+](=O)[O-]
- IC50 [11]: 54.7 µM

SMILES: Cc1ccccc1-n1c(C)nc2c(OCc3nnn(Cc4ccc(-c5ccncc5)cc4)n3)cccc2c1=O
- ED50 [8]: 12.9 mg/kg
- ED50 [9]: > 100 mg/kg

SMILES: O=[N+]([O-])c1ccccc1/C=N/NCCCCc1nnnn1-c1ccccc1
- IC50 at 24 h ([10]; NIH/3T3 cells): 55 µg/mL
- inhibition [19]: 92%

SMILES: Cc1ccccc1-n1c(C)nc2c(OCc3nnn(S(=O)(=O)c4ccc(N)cc4)n3)cccc2c1=O
- ED50 [8]: 4.93 mg/kg
- ED50 [9]: 72.3 mg/kg

SMILES: COc1ccc2c3c1O[C@H]1C[C@@H](O)C=C[C@@]31CCN(C)C2 [GALANTAMINE]
- IC50 at 24 h ([10]; NIH/3T3 cells): 7.28 µM
